Values of other authors in patent publication US20220249374A1, “RADIOTHERAPEUTIC MICROSPHERES” (priority 2019, published 2022).

Test system: HCC
Conditions: patients with HCC too advanced for resection or localized ablation

## CNC(=O)c1cc(Oc2ccc(NC(=O)Nc3ccc(Cl)c(C(F)(F)F)c3)cc2)ccn1 [Nexavar, sorafenib]
  prolongation of survival: three
